Results: ChEMBL document CHEMBL2046364, “Synthesis and evaluation of novel 3a,9a-dihydro-1-ethoxycarbonyl-1-cyclopenteno[5,4-b]benzopyran-4-ones as antifungal agents” (2012)
Values after ≈ are worked out from the molar mass of the structure shown.

Key:
Assay type in all cases: functional
[1] = Antifungal activity against Cryptococcus gastricus MTCC 1715 by spectrophotometry based assay; conditions: Goffeauzyma gastrica
[2] = Antifungal activity against Epidermophyton MTCC 613 by spectrophotometry based assay
Candida albicans = assay: Antifungal activity against Candida albicans MTCC 3018 by spectrophotometry based assay
Aspergillus niger = assay: Antifungal activity against Aspergillus niger MTCC 2642 by spectrophotometry based assay
Saccharomyces cerevisiae = assay: Antifungal activity against Saccharomyces cerevisiae MTCC 1344 by spectrophotometry based assay

Row | Compound | MIC [1] | MIC [2] | MIC (Candida albicans) | MIC (Aspergillus niger) | MIC (Saccharomyces cerevisiae)
1 | OC(Cn1cncn1)(Cn1cncn1)c1ccc(F)cc1F [FLUCONAZOLE] | 6.25 µg/mL (≈ 20.4 µM) | 6.25 µg/mL (≈ 20.4 µM) | 3.12 µg/mL (≈ 10.2 µM) | 1.5 µg/mL (≈ 4.9 µM) | 1.5 µg/mL (≈ 4.9 µM)
2 | CCOC(=O)C1=CC[C@H]2C(=O)c3cc(Cl)ccc3O[C@H]12 | – | – | 50 µg/mL (≈ 171 µM) | 12.5 µg/mL (≈ 42.7 µM) | > 100 µg/mL
3 | CCOC(=O)C1=CC[C@H]2C(=O)c3ccccc3O[C@H]12 | – | > 100 µg/mL | 25 µg/mL (≈ 96.8 µM) | 25 µg/mL (≈ 96.8 µM) | 50 µg/mL (≈ 194 µM)
4 | CCOC(=O)C1=CC[C@H]2C(=O)c3ccc(Br)cc3O[C@H]12 | – | – | – | 100 µg/mL (≈ 297 µM) | 100 µg/mL (≈ 297 µM)
5 | CCOC(=O)C1=CC[C@H]2C(=O)c3cc(Br)ccc3O[C@H]12 | – | – | – | 50 µg/mL (≈ 148 µM) | 50 µg/mL (≈ 148 µM)
6 | CCOC(=O)C1=CC[C@H]2C(=O)c3cc(F)c(Cl)cc3O[C@H]12 | – | – | > 100 µg/mL | 100 µg/mL (≈ 322 µM) | 25 µg/mL (≈ 80.5 µM)
7 | CCOC(=O)C1=CC[C@H]2C(=O)c3cccc(Cl)c3O[C@H]12 | > 100 µg/mL | 50 µg/mL (≈ 171 µM) | 50 µg/mL (≈ 171 µM) | 12.5 µg/mL (≈ 42.7 µM) | 12.5 µg/mL (≈ 42.7 µM)
8 | CCOC(=O)C1=CC[C@H]2C(=O)c3ccc(Cl)cc3O[C@H]12 | – | – | 50 µg/mL (≈ 171 µM) | 25 µg/mL (≈ 85.4 µM) | 25 µg/mL (≈ 85.4 µM)
9 | CCOC(=O)C1=CC[C@H]2C(=O)c3cc(F)ccc3O[C@H]12 | – | > 100 µg/mL | – | > 100 µg/mL | 25 µg/mL (≈ 90.5 µM)
10 | CCOC(=O)C1=CC[C@H]2C(=O)c3cc(C)ccc3O[C@H]12 | – | > 100 µg/mL | – | > 100 µg/mL | > 100 µg/mL
11 | CCOC(=O)C1=CC[C@H]2C(=O)c3ccc(F)cc3O[C@H]12 | 100 µg/mL (≈ 362 µM) | 50 µg/mL (≈ 181 µM) | 25 µg/mL (≈ 90.5 µM) | 12.5 µg/mL (≈ 45.2 µM) | 12.5 µg/mL (≈ 45.2 µM)
